In publication PMC6272861, “In Vitro Inhibition of Human UDP-Glucuronosyl-Transferase (UGT) Isoforms by Astaxanthin, β-Cryptoxanthin, Canthaxanthin, Lutein, and Zeaxanthin: Prediction of in Vivo Dietary Supplement-Drug Interactions” (Molecules, 2016):
Read-outs that look alike come from different tables or passages of the source.

Key:
UGT1A4 = molecular target: T1, UGT1A4 (Homo sapiens, UniProt P22310); assay: Inhibition of UGT1A4 (trifluoperazine-N-glucuronidation) in human liver microsomes; format: in vitro ADME; conditions: for IC50: 4 μM trifluoperazine, mean ± SD of triplicate, read-out: IC50 towards UGT1A4; for Residual UGT1A4 enzyme activity: highest tested concentration 50 μM
T1 construct: pooled human liver microsomes (final concentration 0.25 mg/mL); tissue Corning Life Sciences; host or cells: pooled human liver microsomes, 150 donors
T1 sequence (P22310 29-534): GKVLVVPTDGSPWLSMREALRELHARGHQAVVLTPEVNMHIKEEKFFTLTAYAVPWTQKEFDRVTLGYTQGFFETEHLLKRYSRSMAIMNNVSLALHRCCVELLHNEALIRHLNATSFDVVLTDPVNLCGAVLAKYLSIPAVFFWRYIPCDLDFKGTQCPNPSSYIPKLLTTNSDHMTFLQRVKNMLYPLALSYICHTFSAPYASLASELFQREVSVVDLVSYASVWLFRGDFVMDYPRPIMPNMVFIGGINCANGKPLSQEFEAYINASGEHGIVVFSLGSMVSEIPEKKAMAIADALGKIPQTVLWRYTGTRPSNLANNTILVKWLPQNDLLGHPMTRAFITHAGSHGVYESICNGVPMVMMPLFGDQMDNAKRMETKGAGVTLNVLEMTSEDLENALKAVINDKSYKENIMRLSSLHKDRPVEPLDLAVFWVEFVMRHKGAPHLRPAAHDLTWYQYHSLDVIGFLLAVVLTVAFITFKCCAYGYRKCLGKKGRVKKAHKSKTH
Experimental: (§1) The formation activities of β-estradiol-3-glucuronide, chenodeoxycholic acid 24-acyl-β-D-glucuronide, trifluoperazine-N-glucuronide, imipramine-N-β-D-glucuronide, serotonin-O-glucuronide, propofol-O-glucuronide, and zidovudine-5′-glucuronide were determined to probe the activities of UGT1A1, UGT1A3, UGT1A4, UGT1A6, UGT1A9 and UGT2B7, respectively, in human liver microsomes.
(§2) In brief, the 90-µL incubation mixture, including pooled human liver microsomes (final concentration 0.25 mg/mL), 100 mM Tris buffer, 25 µg/mL alamethicin, 5 mM MgCl2, the UGT-selective substrates, and five xanthophylls (0–50 μM), were pre-incubated for 30 min on ice to allow formation of alamethicin pores. Reac2345tions were initiated by the addition of 10 μL of UDPGA (5 mM) to a final reaction volume of 0.1 mL and incubated at 37 °C for 60 min (except 30 min for UGT1A9) in a shaking water bath. After incubation, each reaction was stopped by adding 50 μL of ice-cold acetonitrile containing chlorpropamide (300 ng/mL) or theophylline (30 μg/mL or 300 μg/mL) as an internal standard. The mixtures were then centrifuged (13,000 g for 15 min at 4 °C) and 5-µL aliquots of the supernatants were injected into an LC-MS/MS system. […] All incubations were performed in triplicate, and mean values were used for analysis.
(§3) Chromatographic separations were performed on an Agilent Poroshell 120 EC-C18 column (50 mm × 4.6-mm i.d.; 2.7-μm particle size; Agilent Technologies) to quantify β-estradiol-3-glucuronide (UGT1A1), chenodeoxycholic acid 24-acyl-β-D-glucuronide (UGT1A3), trifluoperazine-N-glucuronide (UGT1A4), propofol-O-glucuronide (UGT1A9), zidovudine-5′-glucuronide (UGT2B7), and 4-methylumbelliferyl glucuronide (UGT2B15); an Agilent Poroshell 120 EC-C18 column (100 × 4.6-mm i.d.; 2.7-mm particle size) was used for quantification of serotonin-O-glucuronide (UGT1A6). The isocratic mobile phase consisted of distilled water (A) and acetonitrile containing 0.1% formic acid (B) at a ratio (v/v) of 10:90 for chenodeoxycholic acid 24-acyl-β-D-glucuronide, 30:70 for trifluoperazine-N-glucuronide and zidovudine-5′-glucuronide, 50:50 for propofol-O-glucuronide and 4-methylumbelliferyl glucuronide, 65:35 for β-estradiol-3-glucuronide, and 90:10 for serotonin-O-glucuronide, at a flow rate of 0.5 mL/min. The total run time was 4.0 min per sample for each metabolite, with the exception of serotonin-O-glucuronide (6.0 min). Peak areas for all of the analytes were automatically integrated using Analyst software (version 1.5.2, Applied Biosystems, Foster City, CA, USA).
(§4) The IC50 values were calculated via nonlinear least-squares regression analysis from plots of the logarithms of inhibitor concentration vs. the residual percentages of activities after inhibition, using WinNonlin (ver. 4.0; Pharsight, Mountain View, CA, USA).

UGT1A6 = molecular target: T2, UGT1A6 (Homo sapiens, UniProt P19224); assay: Inhibition of UGT1A6 (serotonin-O-glucuronidation) in human liver microsomes; format: in vitro ADME; conditions: for IC50: 4000 μM serotonin, mean ± SD of triplicate, read-out: IC50 towards UGT1A6; for Residual UGT1A6 enzyme activity: highest tested concentration 50 μM
T2 construct: pooled human liver microsomes (final concentration 0.25 mg/mL); tissue Corning Life Sciences; host or cells: pooled human liver microsomes, 150 donors
T2 sequence (P19224 27-532): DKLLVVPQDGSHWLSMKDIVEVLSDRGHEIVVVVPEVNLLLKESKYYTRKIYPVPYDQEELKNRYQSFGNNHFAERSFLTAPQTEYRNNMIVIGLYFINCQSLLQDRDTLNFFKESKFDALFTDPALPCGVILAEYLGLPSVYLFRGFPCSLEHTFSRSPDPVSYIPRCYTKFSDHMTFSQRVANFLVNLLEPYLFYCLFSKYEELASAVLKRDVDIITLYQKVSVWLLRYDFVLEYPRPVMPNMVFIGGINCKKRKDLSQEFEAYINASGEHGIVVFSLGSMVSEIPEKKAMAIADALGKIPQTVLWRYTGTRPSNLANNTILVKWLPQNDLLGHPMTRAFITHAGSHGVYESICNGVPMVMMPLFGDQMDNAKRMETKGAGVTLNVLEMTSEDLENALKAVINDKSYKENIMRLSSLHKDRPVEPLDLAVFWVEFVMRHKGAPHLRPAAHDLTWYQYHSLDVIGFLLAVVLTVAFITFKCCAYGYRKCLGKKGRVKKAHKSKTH
Experimental: as §1, §2
The IC50 values were calculated via nonlinear least-squares regression analysis from plots of the logarithms of inhibitor concentration vs. the residual percentages of activities after inhibition, using WinNonlin (ver. 4.0; Pharsight, Mountain View, CA, USA). The apparent inhibitory constants (the Ki values) were estimated from fitted curves using the WinNonlin software. Inhibition data were fitted to different models of enzyme inhibition (competitive, non-competitive, uncompetitive, or mixed) using nonlinear least-squares regression analysis (WinNonlin software). The most appropriate inhibition model was selected based on goodness-of-fit criteria determined via visual inspection, by calculating correlations of determination (R^2 values), and using the corrected Akaike′s Information Criterion. For visual inspection, data were presented as Dixon plots.

UGT1A1 [1] = molecular target: T3, UGT1A1 (Homo sapiens, UniProt P22309); assay: Inhibition of UGT1A1 (β-estradiol-3-glucuronidation) in human liver microsomes; conditions: for Residual UGT1A1 enzyme activity: highest tested concentration 50 μM
T3 sequence (P22309 26-533): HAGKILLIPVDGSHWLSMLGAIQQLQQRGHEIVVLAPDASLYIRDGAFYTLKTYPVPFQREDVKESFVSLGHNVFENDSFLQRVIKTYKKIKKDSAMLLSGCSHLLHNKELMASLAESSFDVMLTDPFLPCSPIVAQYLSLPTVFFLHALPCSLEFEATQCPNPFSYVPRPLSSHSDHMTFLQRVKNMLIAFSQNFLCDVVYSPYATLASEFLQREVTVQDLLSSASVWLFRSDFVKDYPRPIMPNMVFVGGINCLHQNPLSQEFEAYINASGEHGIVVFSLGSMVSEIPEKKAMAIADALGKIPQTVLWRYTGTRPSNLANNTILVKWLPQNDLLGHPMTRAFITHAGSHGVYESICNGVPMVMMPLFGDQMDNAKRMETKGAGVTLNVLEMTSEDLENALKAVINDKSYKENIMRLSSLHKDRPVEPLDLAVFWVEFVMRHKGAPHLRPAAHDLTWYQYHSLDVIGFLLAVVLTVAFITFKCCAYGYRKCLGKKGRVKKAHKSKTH
Experimental: as §1, §2, §3, §4

UGT1A1 [2] = molecular target: T3, UGT1A1; assay: Ki determination on UGT1A1 activity (β-estradiol-3-glucuronidation) in human liver microsomes
Experimental: Based on the lowest IC50 value, the inhibitor constant (Ki) values of the βC for UGT1A1 were determined. […] All incubations were performed in triplicate, and the mean values were used for the analysis. Other procedures were similar to those of the reversible inhibition studies.
For visual inspection, data were presented as Dixon plots.

[3] = parameters: method as in PMID 13129448; conditions: healthy subjects, single-dose carotenoid supplement containing 1.3 mg of esterified βC, oral; read-out: mean Cmax (maximum plasma concentration); cited from earlier work
UGT1A1 [4] = molecular target: T3, UGT1A1; assay: Prediction of in vivo drug interaction via UGT1A1 inhibition (AUCi/AUC = 1 + [I]in vivo/Ki); parameters: pooled human liver microsomes (final concentration 0.25 mg/mL); tissue Corning Life Sciences; host or cells: pooled human liver microsomes, 150 donors
Description: As far as we know, for reversible inhibitors, the magnitude of the drug-drug interaction is affected by both the in vitro inhibition constant (Ki) and the in vivo inhibitor concentration. […] In this study, the maximum plasma concentration (Cmax) of βC was used as the [I]in vivo value, and the fraction metabolized by the UGT1A1 of the co-administrated drug was supposed to be 1.

[5] = read-out: IC50 towards UGT1A1, human liver microsomes, 10 μM β-estradiol, mean ± SD of triplicate

Compound | IC50 (UGT1A4) [µM] | Residual UGT1A4 enzyme activity (UGT1A4) | IC50 (UGT1A6) [µM] | Residual UGT1A6 enzyme activity (UGT1A6) | IC50 (UGT1A1 [1]) [µM] | Residual UGT1A1 enzyme activity (UGT1A1 [1]; human liver microsomes) | IC50 (UGT1A1 [1]; [5]) [µM] | Mode of inhibition of UGT1A1 (UGT1A1 [2]; Dixon plots / nonlinear regression) | Ki (UGT1A1 [2]; read-out: Ki against UGT1A1-catalyzed β-estradiol-3-glucuronidation, β-estradiol 5, 10 and 20 μM, nonlinear regression) [µM] | Cmax [3] [nM] | AUCi/AUC ratio for UGT1A1 (UGT1A1 [4]; calculated from Cmax 0.15 μM and Ki, fraction metabolized by UGT1A1 supposed to be 1) | Predicted increase of AUC of co-administered drug (UGT1A1 [4]; drugs that undergo 100% UGT1A1-mediated elimination) [%]
CC1=C(/C=C/C(C)=C/C=C/C(C)=C/C=C/C=C(C)/C=C/C=C(C)/C=C/C2=C(C)C(=O)CCC2(C)C)C(C)(C)CCC1=O [CA, canthaxanthin] | > 50 |  | > 50 |  |  |  | 38.5 ± 4.65 |  |  |  |  | 
CC1=C(/C=C/C(C)=C/C=C/C(C)=C/C=C/C=C(C)/C=C/C=C(C)/C=C/C2=C(C)C[C@@H](O)CC2(C)C)C(C)(C)CCC1 [βC, β-cryptoxanthin] | 34.9 ± 5.98 |  | > 50 |  |  |  | 18.8 ± 2.07 | competitive inhibition | 12.2 ± 0.985 | ~150 | 1.012 | 1.2
CC1=C[C@H](O)CC(C)(C)[C@H]1/C=C/C(C)=C/C=C/C(C)=C/C=C/C=C(C)/C=C/C=C(C)/C=C/C1=C(C)C[C@@H](O)CC1(C)C [LU, lutein] | 28.7 ± 3.79 |  | > 50 |  | 45.5 ± 4.01 |  |  |  |  |  |  | 

Further lines, with some results ahead:

IC50 (UGT1A4) [µM] | Residual UGT1A4 enzyme activity (UGT1A4) | IC50 (UGT1A6) [µM] | Residual UGT1A6 enzyme activity (UGT1A6) | IC50 (UGT1A1 [1]) [µM] | Residual UGT1A1 enzyme activity (UGT1A1 [1]; human liver microsomes) | Compound | IC50 (UGT1A1 [1]; [5]) [µM] | Mode of inhibition of UGT1A1 (UGT1A1 [2]; Dixon plots / nonlinear regression) | Ki (UGT1A1 [2]; read-out: Ki against UGT1A1-catalyzed β-estradiol-3-glucuronidation, β-estradiol 5, 10 and 20 μM, nonlinear regression) [µM] | Cmax [3] [nM] | AUCi/AUC ratio for UGT1A1 (UGT1A1 [4]; calculated from Cmax 0.15 μM and Ki, fraction metabolized by UGT1A1 supposed to be 1) | Predicted increase of AUC of co-administered drug (UGT1A1 [4]; drugs that undergo 100% UGT1A1-mediated elimination) [%]
> 50 | greater than 80% | > 50 | greater than 80% | > 50 | greater than 80% | CC1=C(/C=C/C(C)=C/C=C/C(C)=C/C=C/C=C(C)/C=C/C=C(C)/C=C/C2=C(C)C(=O)[C@@H](O)CC2(C)C)C(C)(C)C[C@H](O)C1=O [AS, astaxanthin] |  |  |  |  |  | 
> 50 | greater than 80% | > 50 | greater than 80% | > 50 | 61.2% | CC1=C(/C=C/C(C)=C/C=C/C(C)=C/C=C/C=C(C)/C=C/C=C(C)/C=C/C2=C(C)C[C@@H](O)CC2(C)C)C(C)(C)C[C@H](O)C1 [ZE, zeaxanthin] |  |  |  |  |  | 
